In patent US20240166690A1, “MULTI-TARGET CY[…] FOR OPIOID/NEUROPEPTIDE FF RECEPTORS, AND PREPARATION THEREFOR AND APPLICATION THEREOF” (SHANGHAI TIANCI LIFE SCIENCE DEVELOPMENT CO., LTD., priority 2021, published 2024):
Bridge positions count the residues as written; N and C are the ends. Square brackets hold non-standard residues; d marks the D form. Peptide text beside a SMILES is read from it. NMeF = CN[C@@H](Cc1ccccc1)C(=O)O; dOrn = NCCC[C@@H](N)C(=O)O

Tests used:
Kunming male mice [1] = test: Open field test (locomotor activity); type: in vivo; conditions: oral, 1000 μg/kg of compound 1, 100 μg/kg of compound 11; for locomotor distance: within 150 minutes, saline 131.1±33.93 m
Procedure: Open field test was consisted of an uncapped 50×50×40 cm black organic glass box and a set of motion monitoring system. 21±2 g Kunming male mice were selected for the experiment. The room temperature was controlled between 22±1° C., otherwise, high or low temperatures would affect the movement of the mice. Before the experiment began, the box was wipped with alcohol to remove the odor inside and avoid the odor from affecting the locomotor activity of the next mouse. Before the experiment, the basic locomotor activity of the mouse in 30 minutes was recorded, followed by oral (p.o.) injection of physiological saline, 1000 μg/kg of compound 1, and 100 μg/kg of compound 11. The locomotor activity of mice within 150 minutes was recorded. The locomotor activity of mouse was represented by the total distance traveled, which is the total distance±S.E.M. The difference between the compound group and saline control group was statistically analyzed using one-way ANOVA (Bonferroni test). *P<0.05, **P<0.01, and ***P<0.001 indicated significance of difference between saline and compound.

Kunming male mice [2] = test: Constipation side effect assay (gastrointestinal motility, activated carbon); type: in vivo; conditions: oral; for side effect of constipation: effective dose range of analgesia
Procedure: (§1) 26±2 g Kunming male mice were selected. First, the mice were starved and placed in a box without padding. The mice were not allowed to eat, but could drink water freely. The mice were starved for 16 hours then weighted, and administered orally (p.o.). After 15 minutes of administration, pre-prepared activated carbon suspension (a physiological saline suspension containing 5% activated carbon and 10% arabic gum) was orally infused into the stomach at a volume of 0.1 mL/10 g. After 30 minutes of gavage, the mice were sacrificed through cervical dislocation. The mice were dissected immediately and the entire length of the small intestine was taken from the pylorus of the stomach to the cecum. Then the total length of the small intestine and the length of carbon powder movement were measured.
(§2) The experimental data of gastrointestinal motility was represented by a percentage of gastrointestinal motility, and the specific calculation method was represented by a percentage of the distance the carbon powder moved divided by the total length of the small intestine. The data was represented by the mean±S.E.M. of the percentage of gastrointestinal motility, and the differences between compounds and saline were analyzed using one-way ANOVA (Dunnett test). *P<0.05, **P<0.01, and ***P<0.001indicated significance of the difference between only saline injected and related compounds injected.

[3] = as above; type: in vivo, mice; conditions: male, Kunming, mouse, in vivo; oral injection, mice; read-out: ED50 of gastrointestinal inhibition
Procedure: as §1, §2

Kunming male mice [4] = test: Photothermal tail flick experiment, subcutaneous injection; type: in vivo; conditions: photothermal tail flick
Procedure: Two administration methods were used: peripheral subcutaneous administration and oral administration. Subsequently, the analgesic activity of the drug was studied using an acute pain model of photothermal tail flick in mice.
Subcutaneous administration on the back was chosen for subcutaneous administration (s.c.). A sterile 1 mL syringe was used and the drug with the volume of 0.1 mL/10 g was injected for administration. The back skin was grasped with the right hand, the needle was tilted in, and the drug was injected subcutaneously into the mouse's back. After the needle was inserted, shook it left and right, and observe to confirm that the needle had indeed entered the subcutaneous area to prevent the needle from puncturing the skin and leaking the drug.
The photothermal tail flick experiment is based on the experimental method summarized by D'Amour and Smith to optimize the experimental parameters. The experiment selected Kunming male mice with body weigh 21±2 g, and ambient temperature controlled at 22±2° C. The experimental mice were allowed to drink water freely and were moved from the breeding room to the experimental area for adaptation for 30 minutes before starting the experiment. Then the mice were grab with the right hand and the tail hang freely. Then the mice's tail were placed on a radiation light source, 2-3 mm away from the mice tail. The intensity of radiation heat was adjusted to the tail flick time of mice being 3-5 s, which is the basic pain threshold of photothermal tail flick. The irradiation time of the mice tail should not exceed 10 s to prevent scalding of the mice tail, which was the maximum latency for photothermal tail flick. After administration, time points of 10, 20, 30, 45, 60, 90, 120, 180, 240, 300, 360, and 420 minutes were selected to measure the tail flick latency of mice after administration.
The analgesic effect of drugs was generally evaluated using the maximum analgesic effect MPE (%), MPE (%)=100×[(pain threshold after administration−basic pain threshold)/(10 seconds−basic pain threshold)]. 50% effective dose (ED50) refers to the corresponding drug dose that causes a 50% effect. ED50 and 95% confidence interval were calculated using MPE (%) and the drug concentration that achieves the maximum analgesic effect MPE (%) by the statistical software GraphPad Prism 5.0. The difference in analgesic effects was statistically analyzed using one-way ANOVA (Dunnett test), *P<0.05, **P<0.01, and ***P<0.001 indicated significance of the difference between the group with only drug injected and the saline group.

Row | SMILES | locomotor activity versus saline (Kunming male mice [1]) | locomotor distance (Kunming male mice [1]) | ED50 of gastrointestinal inhibition relative to analgesic ED50 (Kunming male mice [2]) | side effect of constipation (Kunming male mice [2]) | ED50 at 45 min [3] | ED50 value (95% confidence interval), analgesic activity (Kunming male mice [4])
1 | CN1C(=O)CNC(=O)[C@H](NC(=O)[C@@H](N)Cc2ccc(O)cc2)CCCNC(=O)CC[C@@H](C(=O)N2CCC[C@H]2C(=O)N[C@@H](CCC(N)=O)C(=O)N[C@@H](CCCNC(=N)N)C(=O)N[C@@H](Cc2ccccc2)C(N)=O)NC(=O)[C@@H]1Cc1ccccc1 [Compound 11, Tyr-c^[2,5][D-Orn-Gly-NMe-Phe-Glu]-Pro-Gln-Arg-Phe-NH2] (H-Y[dOrn]G[NMeF]EPQRF-NH2; lactam 2-5) | no change in the locomotor activity | 127.9±23.49 m | 8850 times | no side effect of constipation within the effective dose range of analgesia | 1.24 mg/kg | –
2 | CN1C(=O)CNC(=O)[C@H](NC(=O)[C@@H](N)Cc2ccc(O)cc2)CCCCNC(=O)C[C@@H](C(=O)N2CCC[C@H]2C(=O)N[C@@H](CCC(N)=O)C(=O)N[C@@H](CCCNC(=N)N)C(=O)N[C@@H](Cc2ccccc2)C(N)=O)NC(=O)[C@@H]1Cc1ccccc1 [Compound 1, Tyr-c[D-Lys-Gly-NMe-Phe-Asp]-Pro-Gln-Arg-Phe-NH2] (H-Y[dK]G[NMeF]DPQRF-NH2; lactam 2-5) | no change in the locomotor activity | 109.4±32.16 m | 27044 times | no side effect of constipation within the effective dose range of analgesia | 37.1 mg/kg | 0.32 (0.27 to 0.38) μg/kg
